The text below walks through data of PMC3954902 (Journal of medicinal chemistry, 2013).

Structures are written as SMILES. pIC50: −log10 of the molar value. A value given as a limit tells only on which side of the number the result lay.

Data set [1] concerns HCV genotype 1b subgenomic replicon in Huh-5-2 cells. Put plainly: Replicon assay on Huh5-2. It counts as cell-based, Hepatitis C virus. To be noted: for Replicon assay on Huh5-2 SI (ratio of CC50 to EC50): Huh-5-2 cells; for anti-HCV activity and toxicity in words: Huh-5-2 replicon and MTS. (Replicon systems follow genome replication, usually without infectious particles.)
A further data set concerns NS5B. Conditions: read-out: NS5B IC50 reported by Kumar et al.; literature value; cited from earlier work.
A further data set addresses recombinant HCV NS5BCΔ21 (Hepatitis C virus genotype 1b, UniProt O92972). Description: NS5B polymerase primer-dependent elongation assay. To be noted: for fold reduction in potency against NS5B relative to derivative 8: ratio of IC50 values vs 8. It counts as biochemical, HCV genotype 1b (HC-J4).
A further data set has as its system Huh-9-13 cells. Put plainly: MTS assay and microscopic analysis on Huh 9-13 cells. It counts as cell-based. Background: Tetrazolium assays rely on reduction of a dye to a coloured formazan, in cell work by metabolically active cells.

Turning to `COc1cc2c(=O)c(C(=O)OCc3ccc(C)cc3)cn(Cc3ccc(C(F)(F)F)cc3F)c2cc1OC` [Compound 2, reference compound], in data set [1] (Huh-5-2, data not shown), the “selectivity of anti-HCV effect from dose-response curve” value is reported as “non-selective anti-HCV agent”. The negative logarithm of the IC50 (pIC50) in the data set with NS5B is 8.10. As to `Cc1ccc(COC(=O)c2cn(Cc3ccc(C(F)(F)F)cc3F)c3cc(Cl)c(N)cc3c2=O)cc1` [Compound 4, 4-Methylbenzyl 6-amino-7-chloro-1-[2-fluoro-4-(trifluoromethyl)benzyl]-4-oxo-1,4-dihydro-3-quinolinecarboxylate], in data set [1], the “Replicon assay on Huh5-2 SI (ratio of CC50 to EC50)” value was more than 2.5; the “anti-HCV activity and toxicity in words” value is given as “neither active nor toxic”. As to `Nc1cc2c(=O)c(C(=O)OCc3ccc(Cl)cc3)cn(Cc3ccc(Cl)cc3)c2cc1Cl` [Compound 5, 4-Chlorobenzyl 6-amino-7-chloro-1-(4-chlorobenzyl)-4-oxo-1,4-dihydro-3-quinolinecarboxylate], the “anti-HCV activity and toxicity in words” value in data set [1] is given as “neither active nor toxic”. Further, on recombinant HCV NS5BCΔ21 (25 µM compound concentration), the “inhibition of NS5B RdRp activity in preliminary screening” value was “inactive”.

Take `CN1CCN(c2cc3c(cc2N)c(=O)c(C(=O)OCc2ccc(Cl)cc2)cn3Cc2ccc(Cl)cc2)CC1` [Compound 7, 4-Chlorobenzyl 6-amino-1-(4-chlorobenzyl)-7-(4-methyl-1-piperazinyl)-4-oxo-1,4-dihydro-3-quinolinecarboxylate]: the “fold higher NS5B inhibition than reference compound 2” value on recombinant HCV NS5BCΔ21 (head to head, same assay conditions) turned out to be 5 fold. Take `Nc1cc2c(=O)c(C(=O)OCc3ccc(Cl)cc3)cn(Cc3ccc(Cl)cc3)c2cc1N1CCN(c2ccccn2)CC1` [Compound 8, 4-Chlorobenzyl 6-amino-1-(4-chlorobenzyl)-4-oxo-7-[4-(2-pyridinyl)-1-piperazinyl]-1,4-dihydro-3-quinolinecarboxylate]: the “cellular morphology by microscopic analysis” value with Huh-9-13 cells is on record as “cell aggregation”.

Consider `Nc1cc2c(=O)c(C(=O)OCc3ccc(Cl)cc3)cn(Cc3ccc(Cl)cc3)c2cc1N1CCN(c2nc3ccccc3s2)CC1` [Compound 9, 4-Chlorobenzyl 6-amino-7-[4-(1,3-benzothiazol-2-yl)-1-piperazinyl]-1-(4-chlorobenzyl)-4-oxo-1,4-dihydro-3-quinolinecarboxylate], for which the “Replicon assay on Huh5-2 SI (ratio of CC50 to EC50)” value in data set [1] is given as more than 17. Consider `Nc1cc2c(=O)c(C(=O)OCc3ccc(Cl)cc3)cn(Cc3ccc(Cl)cc3)c2cc1N1CCN(c2cccc(C(F)(F)F)c2)CC1` [Compound 10, 4-Chlorobenzyl 6-amino-1-(4-chlorobenzyl)-4-oxo-7-{4-[3-(trifluoromethyl)phenyl]-1-piperazinyl}-1,4-dihydro-3-quinolinecarboxylate], for which the “Replicon assay on Huh5-2 SI (ratio of CC50 to EC50)” value in data set [1] is given as more than 6. For `CCOC(=O)c1cn(Cc2ccc(Cl)cc2)c2cc(N3CCN(c4ccccn4)CC3)c(N)cc2c1=O` [Compound 27, Ethyl 6-amino-1-(4-chlorobenzyl)-4-oxo-7-[4-(2-pyridinyl)-1-piperazinyl]-1,4-dihydro-3-quinolinecarboxylate], the “fold reduction in potency against NS5B relative to derivative 8” value on recombinant HCV NS5BCΔ21 was ~ 45 fold. As for `Nc1cc2c(=O)c(C(=O)O)cn(Cc3ccc(Cl)cc3)c2cc1N1CCN(c2ccccn2)CC1` [Compound 28, 6-amino-1-(4-chlorobenzyl)-4-oxo-7-[4-(2-pyridinyl)-1-piperazinyl]-1,4-dihydro-3-quinolinecarboxylic acid], the “Replicon assay on Huh5-2 SI (ratio of CC50 to EC50)” value in data set [1] is more than 28. For the same molecule, on recombinant HCV NS5BCΔ21, the “fold reduction in potency against NS5B relative to derivative 8” value is 345 fold.

What is called pIC50 is −log10 of the IC50, conventionally taken in molar units.
